Source: patent publication US20140073651A1, “BENZAMIDE DERIVATIVES AS P2X7 RECEPTOR ANTAGONISTS” (Actelion Pharmaceuticals Ltd., priority 2011, published 2014)

Biological target: T1, human recombinant P2X7 receptor (Homo sapiens, UniProt Q99572)
T1 construct: expressed in transfected cells
T1 sequence (Q99572 1-595): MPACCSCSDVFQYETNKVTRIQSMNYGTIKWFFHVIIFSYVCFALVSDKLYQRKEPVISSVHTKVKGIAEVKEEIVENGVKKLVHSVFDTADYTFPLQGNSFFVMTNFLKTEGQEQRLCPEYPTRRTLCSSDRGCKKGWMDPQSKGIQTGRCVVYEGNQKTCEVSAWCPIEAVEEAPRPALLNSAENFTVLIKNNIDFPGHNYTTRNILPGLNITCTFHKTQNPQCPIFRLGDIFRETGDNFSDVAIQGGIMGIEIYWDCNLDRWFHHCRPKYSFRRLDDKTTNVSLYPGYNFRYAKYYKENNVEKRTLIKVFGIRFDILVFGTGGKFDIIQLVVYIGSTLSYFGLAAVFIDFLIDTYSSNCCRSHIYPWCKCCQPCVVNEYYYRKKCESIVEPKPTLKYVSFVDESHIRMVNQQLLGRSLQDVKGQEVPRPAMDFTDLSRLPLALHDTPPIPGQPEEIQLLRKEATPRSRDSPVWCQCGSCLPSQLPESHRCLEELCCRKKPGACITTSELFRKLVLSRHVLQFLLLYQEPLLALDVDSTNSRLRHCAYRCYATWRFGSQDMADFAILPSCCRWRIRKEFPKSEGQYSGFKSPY
Test: YO-PRO assay (YO-PRO-1 uptake) in HEK cells stably expressing P2X7
Assay type: cell-based
Conditions: HEK-293 cells expressing human recombinant P2X7 receptor; ATP 250 μM, 90 minutes; YO-PRO-1 fluorescence (FLIPR tetra); read-out: IC50 (antagonistic activity with respect to the P2X7 receptor)
Outline: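 Antagonist serially diluted (duplicates) on P2X7-expressing HEK cells in buffer with 0.5 μM YO-PRO-1; dye uptake followed on FLIPR Tetra over four time points. IC50 from maximum fluorescence intensity versus compound concentration.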

| IC50 [nM] | SMILES |
| --- | --- |
| 14 | O=C(NCC1(O)CCC(F)(F)CC1)c1cc(Oc2cc[nH]c(=O)n2)ccc1Cl [Example 118, 2-Chloro-N-(4,4-difluoro-1-hydroxy-cyclohexylmethyl)-5-(2-oxo-1,2-dihydro-pyrimidin-4-yloxy)-benzamide] |
| 111 | COc1nccc(Oc2ccc(Cl)c(C(=O)NCC3(O)CCCCC3)c2)n1 [Example 120, 2-Chloro-N-(1-hydroxy-cyclohexylmethyl)-5-(2-methoxy-pyrimidin-4-yloxy)-benzamide] |
| 123 | COc1cncc(Oc2ccc(Cl)c(C(=O)NCC3(O)CCCCC3)c2)n1 [Example 123, 2-Chloro-N-(1-hydroxy-cyclohexylmethyl)-5-(6-methoxy-pyrazin-2-yloxy)-benzamide] |
| 30 | COc1ccc(Oc2ccc(Cl)c(C(=O)NCC3(O)CCCCC3)c2)nn1 [Example 128, 2-Chloro-N-(1-hydroxy-cyclohexylmethyl)-5-(6-methoxy-pyridazin-3-yloxy)-benzamide] |
| 206 | COc1cnnc(Oc2ccc(Cl)c(C(=O)NCC3(O)CCCCC3)c2)c1 [Example 131, 2-Chloro-N-(1-hydroxy-cyclohexylmethyl)-5-(5-methoxy-pyridazin-3-yloxy)-benzamide] |
| 46 | O=C(NCC1(O)CCCCC1)c1cc(Sc2ccccn2)ccc1Cl [Example 132, 2-Chloro-N-(1-hydroxy-cyclohexylmethyl)-5-(pyridin-2-ylsulfanyl)-benzamide] |
| 74 | COc1nccc(Sc2ccc(Cl)c(C(=O)NCC3(O)CCCCC3)c2)n1 [Example 139, 2-Chloro-N-(1-hydroxy-cyclohexylmethyl)-5-(2-methoxy-pyrimidin-4-ylsulfanyl)-benzamide] |
| 3890 | COc1nccc(S(=O)(=O)c2ccc(Cl)c(C(=O)NCC3(O)CCCCC3)c2)n1 [Example 141, 2-Chloro-N-(1-hydroxy-cyclohexylmethyl)-5-(2-methoxy-pyrimidine-4-sulfonyl)-benzamide] |
| 80 | O=C(NCC1(O)CCCCC1)c1cc(Cn2ccccc2=O)ccc1Cl [Example 142, 2-Chloro-N-(1-hydroxy-cyclohexylmethyl)-5-(2-oxo-2H-pyridin-1-ylmethyl)-benzamide] |
| 377 | O=C(NCC1(O)CCCCC1)c1cc(Cn2cccnc2=O)ccc1Cl [Example 143, 2-Chloro-N-(1-hydroxy-cyclohexylmethyl)-5-(2-oxo-2H-pyrimidin-1-ylmethyl)-benzamide] |
| 21 | O=C(NCC1(O)CCCCC1)c1cc(Cc2ccccn2)ccc1Cl [Example 145, 2-Chloro-N-(1-hydroxy-cyclohexylmethyl)-5-pyridin-2-ylmethyl-benzamide] |
| 400 | CSc1nccc(Cc2ccc(Cl)c(C(=O)NCC3(O)CCCCC3)c2)n1 [Example 146, 2-Chloro-N-(1-hydroxy-cyclohexylmethyl)-5-(2-methylsulfanyl-pyrimidin-4-ylmethyl)-benzamide] |
| 123 | O=C(NCC1(O)CCCCC1)c1cc(Cc2cc[nH]c(=O)n2)ccc1Cl [Example 147, 2-Chloro-N-(1-hydroxy-cyclohexylmethyl)-5-(2-oxo-1,2-dihydro-pyrimidin-4-ylmethyl)-benzamide] |
| 77 | O=C(c1ccc(Cl)c(C(=O)NCC2(O)CCCCC2)c1)c1cc[nH]c(=O)n1 [Example 150, 2-Chloro-N-(1-hydroxy-cyclohexylmethyl)-5-(2-oxo-1,2-dihydro-pyrimidine-4-carbonyl)-benzamide] |
| 31 | O=C(NCC1(O)CCCCC1)c1cc(C(F)(F)c2cc[nH]c(=O)n2)ccc1Cl [Example 151, 2-Chloro-5-[difluoro-(2-oxo-1,2-dihydro-pyrimidin-4-yl)-methyl]-N-(1-hydroxy-cyclohexylmethyl)-benzamide] |

Continued, molecule first:

| SMILES | IC50 [nM] |
| --- | --- |
| O=C(NCC1(O)CCCCC1)c1cc(Oc2ccncn2)ccc1Cl [Example 114, 2-Chloro-N-(1-hydroxy-cyclohexylmethyl)-5-(pyrimidin-4-yloxy)-benzamide] | 100 |
| O=C(NCC1(O)CCCCC1)c1cc(Oc2ccnc(Cl)n2)ccc1Cl [Example 115, 2-Chloro-5-(2-chloro-pyrimidin-4-yloxy)-N-(1-hydroxy-cyclohexylmethyl)-benzamide] | 191 |
| CNc1nccc(Oc2ccc(Cl)c(C(=O)NCC3(O)CCCCC3)c2)n1 [Example 116, 2-Chloro-N-(1-hydroxy-cyclohexylmethyl)-5-(2-methylamino-pyrimidin-4-yloxy)-benzamide] | 172 |
| CN(C)c1nccc(Oc2ccc(Cl)c(C(=O)NCC3(O)CCCCC3)c2)n1 [Example 117, 2-Chloro-5-(2-dimethylamino-pyrimidin-4-yloxy)-N-(1-hydroxy-cyclohexylmethyl)-benzamide] | 427 |
| O=C(NCC1(O)CCCCC1)c1cc(Oc2ccnc(=O)[nH]2)ccc1Cl [Example 119, 2-Chloro-N-(1-hydroxy-cyclohexylmethyl)-5-(2-oxo-2,3-dihydro-pyrimidin-4-yloxy)-benzamide] | 796 |
| O=C(NCC1(O)CCCCC1)c1cc(Oc2cnccn2)ccc1Cl [Example 121, 2-Chloro-N-(1-hydroxy-cyclohexylmethyl)-5-(pyrazin-2-yloxy)-benzamide] | 93 |
| O=C(NCC1(O)CCCCC1)c1cc(Oc2cncc(Cl)n2)ccc1Cl [Example 122, 2-Chloro-5-(6-chloro-pyrazin-2-yloxy)-N-(1-hydroxy-cyclohexylmethyl)-benzamide] | 101 |
| CNc1cncc(Oc2ccc(Cl)c(C(=O)NCC3(O)CCCCC3)c2)n1 [Example 124, 2-Chloro-N-(1-hydroxy-cyclohexylmethyl)-5-(6-methylamino-pyrazin-2-yloxy)-benzamide] | 163 |
| CN(C)c1cncc(Oc2ccc(Cl)c(C(=O)NCC3(O)CCCCC3)c2)n1 [Example 125, 2-Chloro-5-(6-dimethylamino-pyrazin-2-yloxy)-N-(1-hydroxy-cyclohexylmethyl)-benzamide] | 504 |
| O=C(NCC1(O)CCCCC1)c1cc(Oc2cncc(=O)[nH]2)ccc1Cl [Example 126, 2-Chloro-N-(1-hydroxy-cyclohexylmethyl)-5-(6-oxo-1,6-dihydro-pyrazin-2-yloxy)-benzamide] | 461 |
| O=C(NCC1(O)CCCCC1)c1cc(Oc2ccc(Cl)nn2)ccc1Cl [Example 127, 2-Chloro-5-(6-chloro-pyridazin-3-yloxy)-N-(1-hydroxy-cyclohexylmethyl)-benzamide] | 58 |
| O=C(NCC1(O)CCCCC1)c1cc(Oc2ccc(=O)[nH]n2)ccc1Cl [Example 129, 2-Chloro-N-(1-hydroxy-cyclohexylmethyl)-5-(6-oxo-1,6-dihydro-pyridazin-3-yloxy)-benzamide] | 80 |
| O=C(NCC1(O)CCCCC1)c1cc(Oc2cccnn2)ccc1Cl [Example 130, 2-Chloro-N-(1-hydroxy-cyclohexylmethyl)-5-(pyridazin-3-yloxy)-benzamide] | 67 |
| O=C(NCC1(O)CCCCC1)c1cc(S(=O)(=O)c2ccccn2)ccc1Cl [Example 134, 2-Chloro-N-(1-hydroxy-cyclohexylmethyl)-5-(pyridine-2-sulfonyl)-benzamide] | 105 |
| O=C(NCC1(O)CCCCC1)c1cc(Sc2ccnc(Cl)n2)ccc1Cl [Example 135, 2-Chloro-5-(2-chloro-pyrimidin-4-ylsulfanyl)-N-(1-hydroxy-cyclohexylmethyl)-benzamide] | 266 |
| O=C(NCC1(O)CCCCC1)c1cc(Sc2cc[nH]c(=O)n2)ccc1Cl [Example 137, 2-Chloro-N-(1-hydroxy-cyclohexylmethyl)-5-(2-oxo-1,2-dihydro-pyrimidin-4-ylsulfanyl)-benzamide] | 8.1 |
| O=C(NCC1(O)CCC(F)(F)CC1)c1cc(Sc2cc[nH]c(=O)n2)ccc1Cl [Example 138, 2-Chloro-N-(4,4-difluoro-1-hydroxy-cyclohexylmethyl)-5-(2-oxo-1,2-dihydro-pyrimidin-4-ylsulfanyl)-benzamide] | 10 |
| O=C(NCC1(O)CCCCC1)c1cc(Cn2ccc(=O)[nH]c2=O)ccc1Cl [Example 144, 2-Chloro-5-(2,4-dioxo-3,4-dihydro-2H-pyrimidin-1-ylmethyl)-N-(1-hydroxy-cyclohexylmethyl)-benzamide] | 1390 |
| COc1nccc(Cc2ccc(Cl)c(C(=O)NCC3(O)CCCCC3)c2)n1 [Example 148, 2-Chloro-N-(1-hydroxy-cyclohexylmethyl)-5-(2-methoxy-pyrimidin-4-ylmethyl)-benzamide] | 343 |
| O=C(NCC1(O)CCC(F)(F)CC1)c1cc(Cc2cc[nH]c(=O)n2)ccc1Cl [Example 149, 2-Chloro-N-(4,4-difluoro-1-hydroxy-cyclohexylmethyl)-5-(2-oxo-1,2-dihydro-pyrimidin-4-ylmethyl)-benzamide] | 33 |
| Cc1ccc(N(C)c2ccnc(Cl)n2)cc1C(=O)NCC1(O)CCCCC1 [Example 153, 5-[(2-Chloro-pyrimidin-4-yl)-methyl-amino]-N-(1-hydroxy-cyclohexylmethyl)-2-methyl-benzamide] | 702 |
| COc1nccc(N(C)c2ccc(C)c(C(=O)NCC3(O)CCCCC3)c2)n1 [Example 154, N-(1-Hydroxy-cyclohexylmethyl)-5-[(2-methoxy-pyrimidin-4-yl)-methyl-amino]-2-methyl-benzamide] | 629 |
